Laboratory results published in PMC9148066, “The Medicinal Halophyte Frankenia laevis L. (Sea Heath) Has In Vitro Antioxidant Activity, α-Glucosidase Inhibition, and Cytotoxicity towards Hepatocarcinoma Cells” (Plants, 2022).
Marks after values point to notes of the source that are not given here.

What was measured:
RSA on ABTS radical = details: ABTS 7.4 mM, 6 min
Experimental: (§1) The absorbance was measured in a microplate reader (Biotek Synergy 4), and the activity was calculated as a percentage of inhibition, relative to a control containing DMSO in place of the sample.
(§2) The extracts were tested on DPPH and ABTS, as described elsewhere. The samples were mixed with radical solutions (DPPH: 120 µM; ABTS: 7.4 mM) in 96-well flat-bottom microtitration plates and were incubated in darkness at RT for 30 and 6 min, respectively. The synthetic antioxidant BHT (E320), used as a preservative in food and cosmetics, was used as a positive control at the same concentrations of the samples. The absorbance was measured at 517 and 734 nm for DPPH and ABTS, respectively.

RSA on DPPH radical = details: DPPH 120 µM, 30 min
Experimental: as §1, §2

[1] = tested on: human lung carcinoma cells (A549); set-up: method as in PMID 19471192; details: cited from earlier work
[2] = Iron chelating activity (ICA); details: FeCl2, ferrozine
Experimental: (§5) The CCA and ICA of the extracts and the positive control (EDTA) were assessed in 96-well microplates according to the methods described in Rodrigues et al. [53]. For CCA, the samples were mixed with 50 mM Na acetate buffer (pH 6), 4 mM pyrocatechol violet, and 50 µg/mL CuSO4 solution. For ICA, the samples were mixed with distilled water and 0.1 mg/mL FeCl2 solution. After 30 min, a 40 mM ferrozine solution was added. The change in absorbance was measured at 632 and 562 nm for CCA and ICA, correspondingly.

[3] = Copper chelating activity (CCA); details: pyrocatechol violet, CuSO4
Experimental: as §5

α-glucosidase = target: α-glucosidase; set-up: method as in doi:10.1016/j.sajb.2020.01.011; details: cited from earlier work
HepG2 cells [4] = details: cited from earlier work
HepG2 cells [5] = test: Cellular viability assay (MTT), HepG2; assay type: cell-based; details: Homo sapiens, 72 h, read-out: HepG2 cytotoxic activity EC50
Experimental: (§3) The HepG2 (human hepatocellular carcinoma) and S17 (murine bone marrow stromal) cell lines were maintained in Dulbecco’s modified eagle medium (DMEM) culture medium supplemented with 10% heat-inactivated fetal bovine serum (FBS), 1% L-glutamine (2 mM), and 1% penicillin (50 U/mL)/streptomycin (50 μg/mL) and were maintained at 37 °C in humidified atmosphere with 5% CO2.
(§4) HepG2 and S17 cells were plated in 96-well tissue plates at a density of 5 × 10^3 cells/well and were incubated for 24 h. Then, the extracts were applied at several concentrations (3.125, 6.25, 12.5, 25, 50 and 100 µg/mL) for 72 h. The 3-(4,5-dimethylthiazol-2-yl)-2,5-diphenyltetrazolium bromide (MTT) colorimetric test was used to determine the cellular viability (Biotek Synergy 4), as formerly detailed. […] The selectivity index (SI) was obtained by dividing the EC50 value of non-tumoral cells (S17) by the EC50 of tumoral cells (HepG2).

[6] = Cellular viability assay (MTT), S17; assay type: cell-based; details: mouse, S17 bone marrow stromal cells (non-tumoral), read-out: S17 cytotoxic activity EC50
Experimental: as §3, §4

SMILES: Cc1cc(C(C)(C)C)c(O)c(C(C)(C)C)c1 [BHT, butylated hydroxytoluene]
- RSA-ABTS EC50 (RSA on ABTS radical): 0.06 ± 0.00 ^a mg/mL
- RSA-DPPH EC50 (RSA on DPPH radical): 0.11 ± 0.00 ^a mg/mL

SMILES: CC1(C)CCCC2(C)OC(=O)C=C12 (centres unmarked) [Dihydroactinidiolide]
- Cytotoxic effect on A549 [1]: strong cytotoxic effect

SMILES: O=C(O)CN(CCN(CC(=O)O)CC(=O)O)CC(=O)O [EDTA, ethylenediamine tetraacetic acid]
- ICA EC50 [2]: 0.06 ± 0.00 ^a mg/mL
- CCA EC50 [3]: 0.17 ± 0.00 ^a mg/mL

SMILES: CC1(C)C[C@H](O)C[C@@]2(C)OC(=O)C=C12 [Loliolide]
- α-glucosidase EC50 (α-glucosidase; approx. equivalent of the µM value): approx. 76 µg/mL
- EC50 (α-glucosidase): 388 µM
- Cytotoxicity against HepG2 cells (HepG2 cells [4]): selective cytotoxicity

SMILES: COc1cc([C@@H]2c3cc4c(cc3[C@@H](O[C@@H]3O[C@@H]5CO[C@@H](C)O[C@H]5[C@H](O)[C@H]3O)[C@H]3COC(=O)[C@H]23)OCO4)cc(OC)c1O [etoposide]
- EC50 (HepG2 cells [5]): 1.45 ± 0.15 µg/mL
- EC50 at 72 h [6]: 7.86 ± 0.25 µg/mL

SMILES: CC1(C)C[C@H](O)C[C@]2(C)OC(=O)C=C12 [isololiolide, Isololiolide]
- Cytotoxicity against HepG2 cells (HepG2 cells [4]): selective cytotoxicity
